Test results published in paper PMC9352307 (Biochemistry, 2022).

Experiments:
[1] = biological target: T1, NADP^+-dependent malic enzyme 1 (ME1) (Homo sapiens, UniProt P48163); assay: X-ray crystal structure; format: biochemical
T1 sequence (P48163 1-572): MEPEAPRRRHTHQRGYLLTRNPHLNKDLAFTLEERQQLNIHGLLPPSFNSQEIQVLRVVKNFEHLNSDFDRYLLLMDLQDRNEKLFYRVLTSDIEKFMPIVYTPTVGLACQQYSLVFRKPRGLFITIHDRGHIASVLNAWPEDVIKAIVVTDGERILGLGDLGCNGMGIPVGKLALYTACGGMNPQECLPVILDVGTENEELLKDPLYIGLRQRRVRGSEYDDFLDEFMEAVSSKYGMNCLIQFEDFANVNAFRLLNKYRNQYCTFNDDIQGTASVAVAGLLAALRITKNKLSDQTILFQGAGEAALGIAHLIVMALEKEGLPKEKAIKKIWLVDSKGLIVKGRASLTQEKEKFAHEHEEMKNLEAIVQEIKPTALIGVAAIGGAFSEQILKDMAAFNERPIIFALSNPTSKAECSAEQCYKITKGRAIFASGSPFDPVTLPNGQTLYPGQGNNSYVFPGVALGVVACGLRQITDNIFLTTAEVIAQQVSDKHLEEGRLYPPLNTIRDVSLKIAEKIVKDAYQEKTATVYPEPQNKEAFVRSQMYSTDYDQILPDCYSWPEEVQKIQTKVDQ

[2] = biological target: T1, NADP^+-dependent malic enzyme 1 (ME1); assay: Michaelis–Menten enzyme kinetics; format: biochemical

| Compound | IC50 [1] [nM] | Michaelis-Menten enzyme kinetics [2] |
| --- | --- | --- |
| CCCc1nc2c(C)ccn(Cc3ccc4nc(-c5ccccc5-c5nnn[nH]5)sc4c3)c-2n1 [AS1134900, 6-[(7-methyl-2-propylimidazo[4,5-b]pyridin-4-yl)methyl]-2-[2-(1H-tetrazol-5-yl)phenyl]-1,3-benzothiazole] | 730 |  |
| NC(=O)c1ccc[n+]([C@@H]2O[C@H](COP(=O)(O)OP(=O)(O)OC[C@H]3O[C@@H](n4cnc5c(N)ncnc54)[C@H](OP(=O)(O)O)[C@@H]3O)[C@@H](O)[C@H]2O)c1 [NADP^+] |  | enzyme kinetics were examined using various concentrations of malate or NADP^+ |
| O=C(O)CC(O)C(=O)O (stereo not drawn) [malate] |  | Michaelis–Menten plot of ME1 activity in the presence of AS1134900 vs DL-malate |
